Laboratory results published in patent publication US11083798B2, “Conjugate including peptide molecule capable of self-assembly in cell organelle and pharmaceutical composition for preventing or treating cancer including conjugate” (UNIST (ULSAN NATIONAL INSTITUTE OF SCIENCE AND TECHNOLOGY), priority 2016, dated 2021).

Legend:
HeLa cells [1] = assay: ROS generation within the cell with dihydroethidium (DHE); assay type: cell-based, human
Excerpt: The mitochondrial stress may eventually lead to the whole-cell stress. […] DHE dye may intercalate with nuclear DNA and oxidizes to ethidium in the presence of ROS, which may show red fluorescence.
(§1) TEM images of Mito-VV and Mito-FxFx were obtained by observation in the same manner as in Example 3.

[2] = system: HeLa, MDA-MB-486, MCF10, PC3, SCC7, HEK293T, NIH-3T3; assay: cell cytotoxicity, Alamar Blue assay, variety of cell lines; assay type: cell-based; conditions: 24 hours, FIG. 33, read-out: IC50 (cell viability)
Procedure: After the confirmation of the intra-mitochondrial assembly of peptide amphiphile, the toxicity of Mito-peptides toward a variety of cells was analyzed, the cells including cancer cell lines such as HeLa (ATCC, cervical cancer), MDA-MB-486 (ATCC) (mammary cancer) MCF10 (breast cancer), PC3 (ATCC, prostate cancer), SCC7 (ATCC, skin cancer), HEK293T (ATCC), and NIH-3T3 (ATCC).
(§2) In order to analyze cell cytotoxicity, the cancer cells were incubated in an incubator including a DMEM medium (available from Gibco) containing 10% of FBS, 1% of penicillin/streptomycin (available from Life Technologies) at a temperature of 37° C. Cell viability thereof was measured 24 hours after cell incubation, by following the protocol of the manufacturer of Alamar Blue assay (available from Thermo Fisher Scientific).

[3] = critical aggregation concentration (CAC) by pyrene excitation method; assay type: physicochemical; conditions: pyrene excitation spectrum, I344/I339
Procedure: In order to verify whether intracellular self-assembly of the Mito-FF according to the present disclosure can occur or not, the CAC of the Mito-FF was measured as follows.
Intensities of emission at 344 nanometers (nm) and 339 nm in a pyrene excitation spectrum differ according to whether pyrene molecules are present as unaggregated individual molecules or as aggregated molecules. The intensities at 344 nm and 339 nm in the excitation spectrum were measured, and the ratio of an intensity in the excitation spectrum at 344 nm to an intensity in the excitation spectrum at 339 nm was calculated. Based on the standard curve shown in FIG. 4, the CAC for Mito-FF was determined.

[4] = self-assembled morphology and size by electron microscopy (TEM); assay type: physicochemical; conditions: PBS (10 mM) and water
HeLa cells [5] = assay: mitochondrial membrane potential depolarization with TMRM; assay type: cell-based, human; conditions: HeLa cells incubated with TMRM and peptide
Excerpt: Under normal conditions, the inner membrane of mitochondria is in an electrochemically polarized state with a higher concentration of H^+ in the inner membrane space. The electrochemical gradient across the membrane causes H^+ to flow to the inner membrane of mitochondria and this process is coupled with production of adenosine triphosphate (ATP). The external materials which may uncouple this process cause the flow of H^+ to be independent of ATP production. This condition is referred as mitochondrial depolarization, which serves as a preliminary indication of mitochondrial dysfunction.
To examine the effect of Mito-FF on the mitochondrial membrane potential, HeLa cells were incubated with TMRM and Mito-FF. The fluorescence emission from the TMRM was monitored at times lapses of 1 hour, 3 hours, and 6 hours. Red fluorescence of TMRM appears when a mitochondrial membrane is completely polarized, whereas depolarization of a mitochondrial membrane causes disappearance of TMRM red fluorescence.
as §1

HeLa cells [6] = assay: ROS generation within mitochondria with Mito SOX Red; assay type: cell-based, human; conditions: 6 hours of incubation with HeLa cells
Excerpt: The mitochondrial dysfunction may result in excessive production of reactive oxygen species (ROS). To confirm the oxidative stress induced by Mito-FF, generation of ROS within mitochondria was monitored using Mito SOX Red.

HeLa cells [7] = assay: TEM image analysis of mitochondrial dysfunction in treated cells; assay type: cell-based, human; conditions: 20 μM, 3 hours
Procedure: To visualize the mitochondrial dysfunction induced by Mito-FF, a TEM image analysis was conducted with HeLa cells treated with Mito-FF of a concentration of 20 μM for 3 hours in the same manner as in Example 3.

[8] = system: HEK 293T normal cell lines; assay: cell viability of normal cell line, Alamar Blue assay; assay type: cell-based; conditions: 24 hours of treatment
Procedure: as §2
In order to confirm whether apoptosis occurs or not by treatment with Mito-peptides, the cell viability of HEK 293T normal cell lines treated with Mito-FF, Mito-FxFx, Mito-VV, or Mito-GG was measured in the same manner as described above.

HeLa cells [9] = assay: FITC annexin/PI staining assay, confocal microscopy; assay type: cell-based, human; conditions: 10 μM, Annexin V positive, PI negative
Procedure: Mitochondria play a vital role in the initiation of an intrinsic apoptosis cascade. It was anticipated that a Mito-peptide localized in a mitochondrion may self-assemble, thereby causing stress in the mitochondrion and inducing apoptotic mechanisms. To confirm this prediction experimentally, FITC annexin/PI staining assay was performed.
For the FIIC annexin/PI staining assay, HeLa cells were incubated in an incubator including a DMEM medium (available from Gibco) containing 10% of FBS and 1% of penicillin/streptomycin (available from Life Technologies) at a temperature of 37° C. 10 μM of each peptide was incubated for 1, 4, 6, 8, or 10 hours. Following the protocol of the manufacturer, the cells were incubated for 15 minutes at room temperature in the presence of 100 μL of annexin-binding buffer solution, 5 μL of Alexa Fluor 488-conjugated annexin V (V13241 available from Life Technologies), and 1 μL of a 100 μg/mL PI working solution.

HeLa cells [10] = assay: flow cytometric analysis (FACS) with annexin V/PI staining; assay type: cell-based, human; conditions: 10 μM
Procedure: For the quantitative analysis of apoptosis, flow cytometric analysis (FACS) was conducted over time with FI-TC annexin V/PI staining assay by using FACSCalibur (available from BD Bioscience), following the protocol of the manufacturer.
In detail, HeLa cells treated with 10 μM of Mito-FF were incubated for 4 hours or 8 hours. Then, FACS analysis was performed thereon.

[11] = liposomal leakage assay (calcein release)
Procedure: To confirm this expectation, a liposomal leakage assay was conducted.
The release of a self-quenching dye such as calcine from liposome is commonly used to test integrity of lipid bilayers. […] Different concentrations of Mito-FF were added to a vesicle-containing solution, and leakage of encapsulated calcein from the vesicle was monitored.

HeLa cells [12] = conditions: 24 hours, FIG. 32

## CC(C)[C@H](NC(=O)CCCc1ccc2ccc3cccc4ccc1c2c34)C(=O)N[C@H](C(=O)N[C@@H](CCCCNCCCCC[P+](c1ccccc1)(c1ccccc1)c1ccccc1)C(N)=O)C(C)C [Mito-VV]
HeLa cells [1]
  ROS generation within the cell (DHE): ROS generation
[2]
  IC50: 10 µM

## NC(=O)[C@H](CCCCNCCCCC[P+](c1ccccc1)(c1ccccc1)c1ccccc1)NC(=O)[C@H](CC1CCCCC1)NC(=O)[C@H](CC1CCCCC1)NC(=O)CCCc1ccc2ccc3cccc4ccc1c2c34 [Mito-FxFx]
HeLa cells [1]
  ROS generation within the cell (DHE): ROS generation
[2]
  IC50: 10 µM

## NC(=O)[C@H](CCCCNCCCCC[P+](c1ccccc1)(c1ccccc1)c1ccccc1)NC(=O)[C@H](Cc1ccccc1)NC(=O)[C@H](Cc1ccccc1)NC(=O)CCCc1ccc2ccc3cccc4ccc1c2c34 [Mito-FF]
[3]
  critical aggregation concentration (CAC): 60 µM
[4]
  average length of nanofibers: 500 nm
  average width of individual fibers: 10 nm
HeLa cells [5]
  time until red fluorescence of TMRM disappeared (membrane depolarization): ≤ 6 h
HeLa cells [6]
  ROS generation inside mitochondria (Mito SOX Red): ROS was generated inside the mitochondria
HeLa cells [1]
  ROS generation within the cell (DHE): significant ROS was generated
HeLa cells [7]
  state of mitochondrion in TEM image: severely damaged
[8]
  toxicity against normal cells: innocuous
HeLa cells [9]
  time until cells entered an early apoptotic stage: ≤ 6 h
HeLa cells [10]
  time at which late apoptotic stage started: > 10 h
HeLa cells [10]; within 2 hours
  total population of the cells that entered an early apoptotic stage: about 81.2%
[11]; concentration below the CAC
  dye leakage at a concentration below the CAC: did not induce any dye leakage
[11]; within 24 hours
  leakage of calcein / dye release from liposome: 100%

## pyrene-FFKFxrFxr
HeLa cells [12]
  toxicity in HeLa cells: significant toxicity
